# Experimental data reported in US9586949B2, “Aza-heteroaryl compounds as PI3K-gamma inhibitors” (Incyte Corporation, priority 2015, dated 2017).
# Assays:
# [1] = target: PI3Kγ (p110γ) Recombinant Human Protein (Homo sapiens (Human), UniProt P48736); assay: PI3K-γ Scintillation Proximity Assay; assay type: biochemical; details: 20 μM PIP2, 2 μM ATP, 13 nM PI3Kγ, 120 min; read-out: PI3K-gamma SPA IC50
# Procedure: [γ-^33P]ATP (10 mCi/mL) and Wheat Germ Agglutinin (WGA) YSi SPA Scintillation Beads was purchased from Perkin-Elmer (Waltham, Mass.). […] PI3Kγ (p110γ) Recombinant Human Protein was purchased from Life technology (Grand Island, N.Y.). ATP, MgCl2, DTT, EDTA, MOPS and CHAPS were purchased from Sigma-Aldrich (St. Louis, Mo.).
# The kinase reaction was conducted in polystyrene 384-well Greiner Bio-one white plate from Thermo Fisher Scientific in a final volume of 25 μL. Inhibitors were first diluted serially in DMSO and added to the plate wells before the addition of other reaction components. The final concentration of DMSO in the assay was 2%. The PI3Kγ assay was carried out at room temperature in 20 mM MOPS, pH 6.7, 10 mM MgCl2, 5 mM DTT and CHAPS 0.03%. Reactions were initiated by the addition of ATP, the final reaction mixture consisted of 20 μM PIP2, 2 μM ATP, 0.5 μCi [γ-^33P] […] The final concentration of SPA beads is 1.0 mg/mL. After the plate sealing, plates were shaken overnight at room temperature and centrifuged at 1500 rpm for 10 min, the radioactivity of the product was determined by scintillation counting on Topcount (Perkin-Elmer). IC50 determination was performed by fitting the curve of percent of the solvent control activity versus the log of the inhibitor concentration using the GraphPad Prism 6.0 software.
# [2] = target: PI3Kδ (p110δ/p85α) Recombinant Human Protein (Homo sapiens (Human), UniProt O00329); assay: PI3Kδ Scintillation Proximity Assay; assay type: biochemical; details: 20 μM PIP2, 2 μM ATP, 3.4 nM PI3Kδ, 120 min; read-out: PI3K-delta SPA IC50
# Chain of PI3Kδ (p110δ/p85α) Recombinant Human Protein (O00329 whole entry): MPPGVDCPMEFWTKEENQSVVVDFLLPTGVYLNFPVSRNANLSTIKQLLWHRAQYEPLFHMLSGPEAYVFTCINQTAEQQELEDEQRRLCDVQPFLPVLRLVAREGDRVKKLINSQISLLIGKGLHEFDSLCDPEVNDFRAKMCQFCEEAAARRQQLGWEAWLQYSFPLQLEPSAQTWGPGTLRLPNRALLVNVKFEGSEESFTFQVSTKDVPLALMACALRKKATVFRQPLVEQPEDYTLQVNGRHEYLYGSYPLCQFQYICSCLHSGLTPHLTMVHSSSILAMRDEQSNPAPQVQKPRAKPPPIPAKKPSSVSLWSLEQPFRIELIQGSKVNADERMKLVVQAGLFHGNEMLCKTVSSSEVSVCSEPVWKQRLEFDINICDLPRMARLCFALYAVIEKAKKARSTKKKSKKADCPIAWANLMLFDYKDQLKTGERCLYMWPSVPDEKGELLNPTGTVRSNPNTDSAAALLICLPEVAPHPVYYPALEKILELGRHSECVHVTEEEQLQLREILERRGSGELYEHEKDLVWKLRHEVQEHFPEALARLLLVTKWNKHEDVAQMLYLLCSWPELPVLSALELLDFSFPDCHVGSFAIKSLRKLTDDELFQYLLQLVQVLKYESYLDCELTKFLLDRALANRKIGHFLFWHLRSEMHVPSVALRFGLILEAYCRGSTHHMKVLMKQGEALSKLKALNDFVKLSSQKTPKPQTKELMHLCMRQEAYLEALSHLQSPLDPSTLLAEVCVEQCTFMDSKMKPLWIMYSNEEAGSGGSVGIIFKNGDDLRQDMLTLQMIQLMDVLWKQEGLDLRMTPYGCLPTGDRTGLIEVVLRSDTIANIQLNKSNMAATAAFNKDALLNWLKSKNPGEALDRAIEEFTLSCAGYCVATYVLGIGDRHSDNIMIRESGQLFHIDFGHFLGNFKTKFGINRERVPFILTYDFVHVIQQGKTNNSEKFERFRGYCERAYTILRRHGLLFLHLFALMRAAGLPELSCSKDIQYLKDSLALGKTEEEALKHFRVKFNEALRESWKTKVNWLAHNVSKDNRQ
# Chain of PI3Kδ (p110δ/p85α) Recombinant Human Protein (P27986 whole entry partner): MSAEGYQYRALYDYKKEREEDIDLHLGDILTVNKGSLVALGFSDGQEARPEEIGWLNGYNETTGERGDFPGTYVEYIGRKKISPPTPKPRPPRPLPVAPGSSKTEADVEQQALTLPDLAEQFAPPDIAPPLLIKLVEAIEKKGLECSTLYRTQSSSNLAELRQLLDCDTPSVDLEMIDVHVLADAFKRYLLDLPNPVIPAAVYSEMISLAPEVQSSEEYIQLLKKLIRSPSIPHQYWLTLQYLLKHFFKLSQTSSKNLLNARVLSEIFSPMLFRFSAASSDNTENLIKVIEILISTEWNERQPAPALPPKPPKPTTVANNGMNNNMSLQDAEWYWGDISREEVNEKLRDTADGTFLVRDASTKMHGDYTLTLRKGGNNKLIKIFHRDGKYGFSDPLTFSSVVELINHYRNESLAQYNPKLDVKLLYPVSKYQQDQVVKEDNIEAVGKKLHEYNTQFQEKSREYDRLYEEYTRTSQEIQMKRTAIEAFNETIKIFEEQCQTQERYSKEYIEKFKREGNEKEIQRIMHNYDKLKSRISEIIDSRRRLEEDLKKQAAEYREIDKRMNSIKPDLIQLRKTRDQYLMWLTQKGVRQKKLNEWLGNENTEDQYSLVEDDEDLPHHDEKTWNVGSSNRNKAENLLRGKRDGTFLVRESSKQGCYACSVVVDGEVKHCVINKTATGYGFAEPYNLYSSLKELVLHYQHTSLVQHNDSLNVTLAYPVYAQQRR
# Source text: [γ-^33P]ATP (10 mCi/mL) and Wheat Germ Agglutinin (WGA) YSi SPA Scintillation Beads was purchased from Perkin-Elmer (Waltham, Mass.). Lipid kinase substrate, D-myo-Phosphatidylinositol 4,5-bisphosphate (PtdIns(4,5)P2)D (+)-sn-1,2-di-O-octanoylglyceryl, 3-O-phospho linked (PIP2), CAS 204858-53-7, was purchased from Echelon Biosciences (Salt Lake City, Utah). PI3Kδ (p110δ/p85α) Recombinant Human Protein was purchased from Eurofins (St Charles, Mo.). ATP, MgCl2, DTT, EDTA, MOPS and CHAPS were purchased from Sigma-Aldrich (St. Louis, Mo.).
# The kinase reaction was conducted in polystyrene 384-well Greiner Bio-one white plate from Thermo Fisher Scientific in a final volume of 25 μL. Inhibitors were first diluted serially in DMSO and added to the plate wells before the addition of other reaction components. The final concentration of DMSO in the assay was 2%. The PI3Kδ assay was carried out at room temperature in 20 mM MOPS, pH 6.7, 10 mM MgCl2, 5 mM DTT and CHAPS 0.03%. Reactions were initiated by the addition of ATP, the final reaction mixture consisted of 20 μM PIP2, 2 μM ATP, 0.5 μCi [γ-^33P] ATP, 3.4 nM PI3Kδ. Reactions were incubated for 120 min and terminated by the addition of 40 μL SPA beads suspended in quench buffer: 163 mM potassium phosphate pH 7.8, 20% glycerol, 25 mM EDTA. The final concentration of SPA beads is 1.0 mg/mL. After the plate sealing, plates were shaken overnight at room temperature and centrifuged at 1500 rpm for 10 min, the radioactivity of the product was determined by scintillation counting on Topcount (Perkin-Elmer). IC50 determination was performed by fitting the curve of percent of the solvent control activity versus the log of the inhibitor concentration using the GraphPad Prism 6.0 software.
# Chain of PI3Kγ (p110γ) Recombinant Human Protein (P48736 whole entry): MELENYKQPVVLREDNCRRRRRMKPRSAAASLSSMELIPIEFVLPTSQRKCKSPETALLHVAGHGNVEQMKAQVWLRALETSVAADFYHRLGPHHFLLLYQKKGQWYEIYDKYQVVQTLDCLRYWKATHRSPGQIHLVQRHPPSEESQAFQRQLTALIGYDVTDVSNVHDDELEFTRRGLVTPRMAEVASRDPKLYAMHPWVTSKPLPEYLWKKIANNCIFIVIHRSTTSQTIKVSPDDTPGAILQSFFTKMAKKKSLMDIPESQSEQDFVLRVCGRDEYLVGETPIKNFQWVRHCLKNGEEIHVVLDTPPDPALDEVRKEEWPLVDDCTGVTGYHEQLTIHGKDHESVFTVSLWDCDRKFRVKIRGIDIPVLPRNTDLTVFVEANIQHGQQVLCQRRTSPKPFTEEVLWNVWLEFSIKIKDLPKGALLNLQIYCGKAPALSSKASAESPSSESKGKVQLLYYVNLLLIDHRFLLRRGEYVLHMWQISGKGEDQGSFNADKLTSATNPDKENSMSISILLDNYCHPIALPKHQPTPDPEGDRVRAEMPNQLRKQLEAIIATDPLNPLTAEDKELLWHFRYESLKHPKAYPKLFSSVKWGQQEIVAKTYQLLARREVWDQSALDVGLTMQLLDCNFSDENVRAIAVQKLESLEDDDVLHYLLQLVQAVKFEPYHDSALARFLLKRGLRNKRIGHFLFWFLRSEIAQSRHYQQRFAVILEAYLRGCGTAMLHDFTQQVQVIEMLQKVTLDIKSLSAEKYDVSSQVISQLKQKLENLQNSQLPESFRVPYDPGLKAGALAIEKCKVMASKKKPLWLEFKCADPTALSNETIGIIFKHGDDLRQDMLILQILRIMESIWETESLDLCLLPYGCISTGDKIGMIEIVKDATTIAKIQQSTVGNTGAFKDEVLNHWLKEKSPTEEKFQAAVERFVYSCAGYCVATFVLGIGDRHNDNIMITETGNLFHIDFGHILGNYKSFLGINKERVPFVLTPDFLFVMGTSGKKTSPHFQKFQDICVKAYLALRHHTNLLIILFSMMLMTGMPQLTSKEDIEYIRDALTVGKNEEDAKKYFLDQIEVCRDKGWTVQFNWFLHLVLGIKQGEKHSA
IC50 [1] [nM],IC50 [2] [nM],SMILES
< 250,< 1000,"O=S(=O)(c1cncc(-c2ccc3nc(-c4nc5ccccc5[nH]4)oc3c2)c1)N1CCC(O)C1 (stereo not shown) [Example 58, 1-({5-[2-(1H-Benzimidazol-2-yl)-1,3-benzoxazol-6-yl]pyridin-3-yl}sulfonyl)pyrrolidin-3-ol bis(trifluoroacetate)]"
< 250,≥ 5000,"CCNS(=O)(=O)c1cncc(-c2ccc3nc(-c4nc5ccccc5[nH]4)oc3c2)c1 [Example 59, 5-[2-(1H-Benzimidazol-2-yl)-1,3-benzoxazol-6-yl]-N-ethylpyridine-3-sulfonamide bis(trifluoroacetate)]"
< 250,≥ 5000,"CCS(=O)(=O)Nc1cc(-c2ccc3nc(-c4nc5ccccc5[nH]4)oc3c2)ccc1F [Example 60, N-{5-[2-(1H-Benzimidazol-2-yl)-1,3-benzoxazol-6-yl]-2-fluorophenyl}ethanesulfonamide]"
< 250,< 250,"OC(c1cncc(-c2ccc3nc(-c4ncc[nH]4)oc3c2)c1)C(F)(F)F (stereo not shown) [Example 61, 1-(5-(2-(1H-Imidazol-2-yl)benzo[d]oxazol-6-yl)pyridin-3-yl)-2,2,2-trifluoroethanol bis(trifluoroacetate)]"
< 250,< 250,"CCCc1nc(-c2nc3ccc(-c4cncc(NS(=O)(=O)CC)c4)cc3o2)[nH]c1C [Example 64, N-(5-(2-(5-Methyl-4-propyl-1H-imidazol-2-yl)benzo[d]oxazol-6-yl)pyridin-3-yl)ethanesulfonamide bis(trifluoroacetate)]"
< 250,< 250,"CCS(=O)(=O)Nc1cc(-c2ccc3nc(-c4nc(C)c(C)[nH]4)oc3c2)cnc1OC [Example 65, N-(5-(2-(4,5-Dimethyl-1H-imidazol-2-yl)benzo[d]oxazol-6-yl)-2-methoxypyridin-3-yl)ethanesulfonamide bis(trifluoroacetate)]"
< 250,< 250,"CCS(=O)(=O)Nc1cc(-c2ccc3nc(-c4nc5c([nH]4)CCCC5)oc3c2)cnc1OC [Example 66, N-(2-Methoxy-5-(2-(4,5,6,7-tetrahydro-1H-benzo[d]imidazol-2-yl)benzo[d]oxazol-6-yl)pyridin-3-yl)ethanesulfonamide]"
< 250,< 250,"Cc1nc(-c2nc3ccc(-c4cncc(C(O)C(F)(F)F)c4)cc3o2)[nH]c1C (stereo not shown) [Example 67, 1-(5-(2-(4,5-Dimethyl-1H-imidazol-2-yl)benzo[d]oxazol-6-yl)pyridin-3-yl)-2,2,2-trifluoroethanol bis(trifluoroacetate)]"
< 250,< 250,"OC(c1cncc(-c2ccc3nc(-c4nc5c([nH]4)CCCC5)oc3c2)c1)C(F)(F)F (stereo not shown) [Example 68, 2,2,2-Trifluoro-1-(5-(2-(4,5,6,7-tetrahydro-1H-benzo[d]imidazol-2-yl)benzo[d]oxazol-6-yl)pyridin-3-yl)ethanol]"
< 250,≥ 5000,"COc1cc(-c2ccc3nc(-c4nc5ccccc5[nH]4)oc3c2)cnc1F [Example 69, 2-(1H-Benzo[d]imidazol-2-yl)-6-(6-fluoro-5-methoxypyridin-3-yl)benzo[d]oxazole bis(trifluoroacetate)]"
< 1000,≥ 5000,"Fc1ncc(-c2ccc3nc(-c4nc5ccccc5[nH]4)oc3c2)cn1 [Example 70, 2-(1H-Benzo[d]imidazol-2-yl)-6-(2-fluoro-pyrimidin-5-yl)benzo[d] oxazole bis(trifluoroacetate)]"
< 1000,< 5000,"O=C(O)Cc1cncc(-c2ccc3nc(-c4nc5ccccc5[nH]4)oc3c2)c1 [Example 71, 2-(5-(2-(1H-Benzo [d]imidazol-2-yl)benzo[d]oxazol-6-yl)pyridin-3-yl)acetic acid]"
< 250,< 5000,"CP(C)(=O)c1cncc(-c2ccc3nc(-c4nc5ccccc5[nH]4)oc3c2)c1 [Example 72, 2-(1H-Benzo[d]imidazol-2-yl)-6-(5-(dimethyl-phosphoryl)pyridin-3-yl)benzo[d]oxazole bis(trifluoroacetate)]"
< 5000,< 5000,"CCS(=O)(=O)Nc1cc(-c2ccc3nc(-c4nc5ccccc5[nH]4)oc3c2)ncc1F [Example 78, N-(2-(2-(1H-Benzo [d]imidazol-2-yl)benzo[d]oxazol-6-yl)-5-fluoropyridin-4-yl) ethanesulfonamide bis(trifluoroacetate)]"
< 250,< 250,"CCS(=O)(=O)Nc1cc(-c2ccc3nc(-c4nc5ccccc5[nH]4)oc3c2)cnc1OC [Example 79, N-(5-(2-(1H-Benzo [d]imidazol-2-yl)benzo[d]oxazol-6-yl)-2-methoxypyridin-3-yl)ethanesulfonamide bis(trifluoroacetate)]"
< 250,< 5000,"CCS(=O)(=O)Nc1cc(-c2ccc3nc(-c4nc5ccccc5[nH]4)oc3c2)cc(F)c1OC [Example 80, N-(5-(2-(1H-Benzo [d]imidazol-2-yl)benzo[d]oxazol-6-yl)-3-fluoro-2-methoxyphenyl) ethanesulfonamide bis(trifluoroacetate)]"

SMILES,IC50 [1] [nM],IC50 [2] [nM]
"Cc1nc(-c2nc3ccc(-c4cncc(S(C)(=O)=O)c4)cc3o2)[nH]c1C [Example 62, 2-(4,5-Dimethyl-1H-imidazol-2-yl)-6-(5-(methylsulfonyl)pyridin-3-yl)benzo[d]oxazole bis(trifluoroacetate)]",< 1000,< 5000
"CCS(=O)(=O)Nc1cncc(-c2ccc3nc(-c4nc(C)c(C)[nH]4)oc3c2)c1 [Example 63, N-(5-(2-(4,5-Dimethyl-1H-imidazol-2-yl)benzo[d]oxazol-6-yl)pyridin-3-yl)ethanesulfonamide bis(trifluoroacetate)]",< 250,< 1000
"CCS(=O)(=O)N(C)c1cncc(-c2ccc3nc(-c4nc5ccccc5[nH]4)oc3c2)c1 [Example 73, N-(5-(2-(1H-Benzo [d]imidazol-2-yl)benzo [d]oxazol-6-yl)pyridin-3-yl)-N-methylethanesulfonamide bis(trifluoroacetate)]",< 250,< 5000
"OC(c1cncc(-c2ccc3nc(-c4nc5ccccc5[nH]4)oc3c2)c1)C(F)(F)F (stereo not shown) [Example 74, 1-(5-(2-(1H-Benzo [d]imidazol-2-yl)benzo [d]oxazol-6-yl)pyridin-3-yl)-2,2,2-trifluoroethanol bis(trifluoroacetate)]",< 250,< 250
"O=S(=O)(CC(F)(F)F)Nc1cc(-c2ccc3nc(-c4nc5ccccc5[nH]4)oc3c2)cnc1F [Example 75, N-(5-(2-(1H-Benzo [d]imidazol-2-yl)benzo[d]oxazol-6-yl)-2-fluoropyridin-3-yl)-2,2,2-trifluoro-ethanesulfonamide bis(trifluoroacetate)]",< 250,< 250
"Cc1ncc(-c2ccc3nc(-c4nc5ccccc5[nH]4)oc3c2)cc1NS(=O)(=O)CC(F)(F)F [Example 76, N-(5-(2-(1H-Benzo [d]imidazol-2-yl)benzo[d]oxazol-6-yl)-2-methylpyridin-3-yl)-2,2,2-trifluoro-ethanesulfonamide bis(trifluoroacetate)]",< 250,< 250
"O=S(=O)(CC(F)(F)F)Nc1cncc(-c2ccc3nc(-c4nc5ccccc5[nH]4)oc3c2)c1 [Example 77, N-(5-(2-(1H-Benzo [d]imidazol-2-yl)benzo[d]oxazol-6-yl)pyridin-3-yl)-2,2,2-trifluoro-ethanesulfonamide bis(trifluoroacetate)]",< 250,< 1000
